Assay results as given in patent US10336762B2 (priority 2017, dated 2019).
Read-outs that look alike come from different tables or passages of the source.

Legend:
[1] = target: IRAK4 enzyme (Homo sapiens (Human), UniProt Q9NWZ3); test: biochemical; type: biochemical; details: IRAK4 enzyme, 500 μM ATP
[2] = test system: TNFα; test: cells; type: cell-based, human; details: Homo sapiens, Monocyte, LPS-stimulated human monocytes, read-out: EC50 TNF

Chain of IRAK4 enzyme (Q9NWZ3 whole entry): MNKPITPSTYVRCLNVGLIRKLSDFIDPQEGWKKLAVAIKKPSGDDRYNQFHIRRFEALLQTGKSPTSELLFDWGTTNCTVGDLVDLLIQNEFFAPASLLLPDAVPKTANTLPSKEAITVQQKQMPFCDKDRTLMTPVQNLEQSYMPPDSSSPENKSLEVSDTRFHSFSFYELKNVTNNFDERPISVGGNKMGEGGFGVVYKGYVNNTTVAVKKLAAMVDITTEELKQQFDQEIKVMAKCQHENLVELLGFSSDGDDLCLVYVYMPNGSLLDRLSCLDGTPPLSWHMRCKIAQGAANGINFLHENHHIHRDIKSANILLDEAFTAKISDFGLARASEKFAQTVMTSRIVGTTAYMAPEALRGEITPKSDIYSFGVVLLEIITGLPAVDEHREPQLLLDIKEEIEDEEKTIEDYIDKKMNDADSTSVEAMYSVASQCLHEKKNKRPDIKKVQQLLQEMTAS

Structure (SMILES)	IC50 ([1]; TR-FRET) [nM]	EC50 ([2]; TNFα content) [nM]	EC50 ([2]; TNFα by TR-FRET) [nM]	IC50 ([1]; TR-FRET (HTRF)) [nM]
CC(C)(O)[C@H](F)CNC(=O)c1cnc(-c2ccc3cc(C#N)cnn23)cc1N[C@H]1CC[C@H](NC(=O)C2CC2)CC1 [Example 297, 6-(3-cyanopyrrolo[1,2-b]pyridazin-7-yl)-4-(((1r,4R)-4-(cyclopropanecarbox-amido)cyclohexyl)amino)-N-((R)-2-fluoro-3-hydroxy-3-methylbutyl) nicotinamide]	1	80		
COC(=O)N1CC[C@H](n2cc(Nc3cc(-c4ccc5cc(C#N)cnn45)ncc3C(=O)NC[C@@H](F)C(C)(C)O)cn2)C1 [Example 224, (S)-methyl 3-(4-((2-(3-cyanopyrrolo[1,2-b]pyridazin-7-yl)-5-(((R)-2-fluoro-3-hydroxy-3-methylbutyl)carbamoyl)pyridin-4-yl)amino)-1H-pyrazol-1-yl) pyrrolidine-1-carboxylate]	1	75		
N#Cc1cnn2c(-c3cc(NC45CCC(O)(CC4)CC5)c(C(=O)NC[C@@H](F)C(=O)N4CC(F)(F)C4)cn3)ccc2c1 [Example 947, (R)-6-(3-cyanopyrrolo[1,2-b]pyridazin-7-yl)-N-(3-(3,3-difluoroazetidin-1-yl)-2-fluoro-3-oxopropyl)-4-((4-hydroxybicyclo[2.2.2]octan-1-yl)amino) nicotinamide]	< 1		207	
N#Cc1cnn2c(-c3cc(NC45CCC(O)(CC4)CC5)c(C(=O)NCC4COC4)cn3)ccc2c1 [Example 617, 6-(3-cyanopyrrolo[1,2-b]pyridazin-7-yl)-4-((4-hydroxybicyclo[2.2.2]octan-1-yl)amino)-N-(oxetan-3-ylmethyl) nicotinamide]		144		2
CCn1cnc(Nc2cc(-c3ccc4cc(C#N)cnn34)ncc2C(=O)NC[C@@H](F)C(C)(C)O)n1 [Example 128, (R)-6-(3-cyanopyrrolo[1,2-b]pyridazin-7-yl)-4-((1-ethyl-1H-1,2,4-triazol-3-yl)amino)-N-(2-fluoro-3-hydroxy-3-methylbutyl)nicotinamide]	1	141		
CC(C)(O)[C@H](F)CNC(=O)c1cnc(-c2ccc3cc(C#N)cnn23)cc1NC1CC2(CNC2)C1 [Example 895, (R)-4-(2-azaspiro[3.3]heptan-6-ylamino)-6-(3-cyanopyrrolo[1,2-b]pyridazin-7-yl)-N-(2-fluoro-3-hydroxy-3-methyl-butyl)nicotinamide]	2		1000	
CC(C)(O)[C@H](F)CNC(=O)c1cnc(-c2ccc3cc(C#N)cnn23)cc1N[C@H]1CC[C@@H](O)C1 [Example 520, 6-(3-cyanopyrrolo[1,2-b]pyridazin-7-yl)-N-((R)-2-fluoro-3-hydroxy-3-methylbutyl)-4-(((1S,3R)-3-hydroxycyclopentyl)amino)nicotinamide]		45		< 1
CC(C)(O)[C@H](F)CNC(=O)c1cnc(-c2ccc3cc(C#N)cnn23)cc1Nc1cnn(CC(F)F)c1 [Example 89, (R)-6-(3-cyanopyrrolo[1,2-b]pyridazin-7-yl)-4-((1-(2,2-difluoroethyl)-1H-pyrazol-4-yl)amino)-N-(2-fluoro-3-hydroxy-3-methylbutyl) nicotinamide]	< 1	16		
CC(C)(O)[C@H](F)CNC(=O)c1cnc(-c2ccc3cc(C#N)cnn23)cc1NC1COC1 [Example 54, (R)-6-(3-cyanopyrrolo[1,2-b]pyridazin-7-yl)-N-(2-fluoro-3-hydroxy-3-methylbutyl)-4-(oxetan-3-ylamino)nicotinamide]	< 1	26		
COC(=O)N1CCOC[C@@H]1CNc1cc(-c2ccc3cc(C#N)cnn23)ncc1C(=O)NC[C@@H](F)C(C)(C)O [Example 919, (S)-methyl 3-(((2-(3-cyano-pyrrolo[1,2-b]pyridazin-7-yl)-5-(((R)-2-fluoro-3-hydroxy-3-methylbutyl)carbamoyl)pyridin-4-yl)amino)methyl)morpholine-4-carboxylate]	37		707	
CC(C)(C)NC(=O)CNC(=O)c1cnc(-c2ccc3cc(C#N)cnn23)cc1NC12CCC(O)(CC1)CC2 [Example 813, N-(2-(tert-butylamino)-2-oxoethyl)-6-(3-cyano-pyrrolo[1,2-b]pyridazin-7-yl)-4-((4-hydroxy-bicyclo[2.2.2]octan-1-yl)amino)nicotinamide]	< 1		92	
CC(C)(O)[C@H](F)CNC(=O)c1cnc(-c2ccc3cc(C#N)cnn23)cc1NC12CCC(C(=O)N3CC(C(F)F)C3)(CC1)CC2 [Example 393, (R)-6-(3-cyanopyrrolo[1,2-b]pyridazin-7-yl)-4-((4-(3-(difluoromethyl)azetidine-1-carbonyl)bicyclo[2.2.2]octan-1-yl)amino)-N-(2-fluoro-3-hydroxy-3-methylbutyl)nicotinamide]	< 1	44		
CC(C)(O)[C@H](F)CNC(=O)c1cnc(-c2ccc3cc(C#N)cnn23)cc1Nc1ccc(N2CCOCC2)nc1 [Example 673, (R)-6-(3-cyanopyrrolo[1,2-b]pyridazin-7-yl)-N-(2-fluoro-3-hydroxy-3-methyl-butyl)-4-((6-morpholino-pyridin-3-yl)amino) nicotinamide]		19		< 1
CC(=O)N1CCC[C@H](Nc2cc(-c3ccc4cc(C#N)cnn34)ncc2C(=O)NC[C@@H](F)C(C)(C)O)C1 [Example 256, 4-(((S)-1-acetylpiperidin-3-yl)amino)-6-(3-cyano-pyrrolo[1,2-b]pyridazin-7-yl)-N-((R)-2-fluoro-3-hydroxy-3-methylbutyl)nicotinamide]	2	389		
CC(C)(O)[C@H](F)CNC(=O)c1cnc(-c2ccc3cc(C#N)cnn23)cc1N[C@H]1C[C@H](CNC(=O)C(F)(F)F)C1 [Example 542, 6-(3-cyanopyrrolo[1,2-b]pyridazin-7-yl)-N—((R)-2-fluoro-3-hydroxy-3-methylbutyl)-4-(((1r,3R)-3-((2,2,2-trifluoroacetamido)methyl)cyclobutyl)amino)nicotinamide]		27		< 1
COC(=O)N[C@H]1C[C@H](CNc2cc(-c3ccc4cc(C#N)cnn34)ncc2C(=O)NC[C@@H](F)C(C)(C)O)C1 [Example 615, methyl ((1R,3r)-3-(((2-(3-cyanopyrrolo[1,2-b]pyridazin-7-yl)-5-(((R)-2-fluoro-3-hydroxy-3-methylbutyl)carbamoyl)pyridin-4-yl)amino)methyl)cyclobutyl)carbamate]		46		< 1
CC(C)(O)[C@H](F)CNC(=O)c1cnc(-c2ccc3cc(C#N)cnn23)cc1Nc1cnc2cc[nH]c2c1 [Example 566, (R)-4-((1H-pyrrolo[3,2-b]pyridin-6-yl)amino)-6-(3-cyanopyrrolo[1,2-b]pyridazin-7-yl)-N-(2-fluoro-3-hydroxy-3-methyl-butyl)nicotinamide]		27		< 1
COC(=O)Nc1ccc(Nc2cc(-c3ccc4cc(C#N)cnn34)ncc2C(=O)NC[C@@H](F)C(C)(C)O)cn1 [Example 888, methyl (R)-(5-((2-(3-cyanopyrrolo[1,2-b]pyridazin-7-yl)-5-((2-fluoro-3-hydroxy-3-methylbutyl)carbamoyl)pyridin-4-yl)amino)pyridin-2-yl)carbamate]	< 1		21	
